The nature of data set [1]: temperature cycling test of FS200 flowable concentrate for seed treatment formulations, analysed under a microscope (40×) for crystal growth. Format: physicochemical. Particulars: for crystal growth: FS formulation. Here is the method: As mentioned previously, it is crucial for the successful application of an agrochemical and/or pharmaceutical formulation that the crystalline form is stable in the particular formulation environment. Flowable concentrates for seed treatment (FS) formulations were prepared for both Form A and Form B. The only difference between the two formulations was the polymorphic form used, all of the other components were identical. The formulations were analyzed under a microscope (40×) for possible crystal growth which can have detrimental consequences such as thickening and potentially solidification of the formulation which can in turn lead to blockages in application equipment, e.g. in seed coating equipment or in spray nozzles in agricultural application machinery. Pictures were taken of the formulations at (i) start (FIGS. 13a and 14a), (ii) immediately after the temperature cycling test (FIGS. 13b and 14b) and (iii) two days at room temperature (RT) after the temperature cycling test (FIGS. 13c and 14c). The pictures are shown for the formulation comprising Form A in FIGS. 13a, 13b and 13c and the pictures for the formulations comprising Form B in FIGS. 14a, 14b and 14c. […] The recipe used is given in Table 8: The above formulations were tested for stability in a temperature cycling test as shown in FIG. 12. The formulations were then analyzed under the microscope (40×) to check for possible stability issues, in particular crystal growth and pictures were taken.

The nature of data set [2]: chemical stability of the polymorphic forms in the formulations tested. As to conditions: in the FS formulations tested.
Where [3] appears, read: at start, before the temperature cycling test, microscope 40× (FIGS. 13a, 14a).
The mark [4] stands for this setting: immediately after the temperature cycling test, microscope 40× (FIGS. 13b, 14b).
The mark [5] stands for this setting: two days at room temperature after the temperature cycling test, microscope 40× (FIGS. 13c, 14c).

Molecules are shown by their SMILES.

Consider `O=C(N[C@H]1CC[C@H]1c1ccc(Cl)cc1Cl)c1cccnc1C(F)(F)F` [Form A, N-[(1S,2S)-2-(2,4-dichlorophenyl)cyclobutyl]-2-(trifluoromethyl) pyridine-3-carboxamide], for which the results for the crystal growth entry in data set [1] (setting [3]), in data set [1] (setting [4]) and in data set [1] (setting [5]) were “did not exhibit any crystal growth”, “clear crystal growth” and “even further crystal growth”, respectively.
Take `O=C(N[C@H]1CC[C@H]1c1ccc(Cl)cc1Cl)c1cccnc1C(F)(F)F` [Form B, (1S,2S) N-[2-(2,4-dichlorophenyl)cyclobutyl]-2-(trifluoromethyl)pyridine-3-carboxamide]: the crystal growth entry in data set [1] (setting [3]) was “did not exhibit any crystal growth”; in data set [1] (setting [4]) it was “no such crystal growth”; in data set [1] (setting [5]), “no such crystal growth”. Moreover, the “resistance to crystal growth” value in data set [1] (when exposed to typical storage conditions) is reported as “surprisingly resistant to crystal growth”. In addition, the “chemical stability (compound degradation)” value in data set [2] is reported as “no compound degradation was observed”.

Values taken from patent US11053201B2, “Crystalline forms” (SYNGENTA PARTICIPATIONS AG, priority 2018, dated 2021).
